Test results from PMC8082450, “Protein Serine/Threonine Phosphatase Type 2C of Leishmania mexicana” (Frontiers in Cellular and Infection Microbiology, 2021).

Target: T1, LmxPP2C (Leishmania mexicana, UniProt E9AXF3)
T1 construct: gene LMXM_25_0750
T1 sequence (E9AXF3 1-406): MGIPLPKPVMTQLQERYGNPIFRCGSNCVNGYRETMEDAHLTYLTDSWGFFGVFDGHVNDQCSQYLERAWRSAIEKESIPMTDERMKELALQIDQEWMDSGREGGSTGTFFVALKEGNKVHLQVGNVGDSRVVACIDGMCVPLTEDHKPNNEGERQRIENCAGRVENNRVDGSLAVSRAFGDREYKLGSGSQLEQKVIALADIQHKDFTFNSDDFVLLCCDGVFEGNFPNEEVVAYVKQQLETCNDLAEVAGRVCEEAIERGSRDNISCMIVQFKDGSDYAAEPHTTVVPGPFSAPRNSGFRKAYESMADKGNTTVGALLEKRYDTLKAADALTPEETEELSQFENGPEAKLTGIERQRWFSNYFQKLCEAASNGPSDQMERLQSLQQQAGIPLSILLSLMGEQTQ
Assay: phosphatase inhibition assay, p-NPP hydrolysis at […] nm
Assay type: biochemical

COC[C@@H]([C@H](O)[C@H](O)C(=O)NCC[C@H](C)c1nc(/C=C/C[C@@H]2O[C@]3(C[C@@H](O)[C@@H]2C)O[C@H]([C@H](C[C@H](O)[C@H](C)[C@H](O)[C@H](C)/C=C(C)/C(C)=C/C=C/C(C)=C\C#N)OC)[C@H](OP(=O)(O)O)C3(C)C)co1)N(C)C [calyculin]
inhibition at 0.005 µM (read-out: % inhibition at 5 nM): 18%

C[n+]1cc2c3c(ccc2c2ccc4cc5c(cc4c21)OCO5)OCO3 [sanguinarine]
inhibition at 20 µM: 81%

C=C1[C@@H](O)[C@@H]2O[C@]3(CC[C@H](/C=C/[C@@H](C)[C@@H]4CC(C)=C[C@@]5(O[C@H](C[C@@](C)(O)C(=O)O)CC[C@H]5O)O4)O3)CC[C@H]2O[C@@H]1[C@@H](O)C[C@H](C)[C@H]1O[C@@]2(CCCCO2)CC[C@H]1C [okadaic acid]
inhibition at 1 µM (read-out: % inhibition at 1 μM): 14%
